The source of these data is patent US8748121B2, “GSH adducts and uses thereof” (The Trustees of the University of Pennsylvania, priority 2006, dated 2014).

Where two headings read alike, the source gives them in different places.

Data set [1] deals with EA.hy 926 endothelial cells. Put plainly: Analysis of GSH adducts (TOG) in ONE-treated endothelial cells by stable isotope dilution LC-MRM/MS. The class given is cell-based. As to conditions: for detection of the adduct in cells treated with ONE: EA.hy 926 cells. As for the experimental part: EA.hy 926 cells were incubated until they reached 70-80% confluence (approximately 2×10^6 cells). DMEM was removed and replaced with FBS-free DMEM prior to treatment with varying concentrations of ONE dissolved in ethanol. The final concentration of ethanol in the culture medium was <0.1%. […] […] […] The cell lysate flow-through and cell media (40 μL of each) were each analyzed in duplicate by LC-MRM/MS using gradient system 4 on the Finnigan Quantum Ultra AM mass spectrometer. The internal standard [^2H3]-ONE-GSH adduct IIb was prepared from 9-[2H3]-ONE and GSH. Quantification of endogenous ONE-GSH adduct IIb was performed from the peak area ratios for the transition m/z 426 [ONE-GSH adduct IIb, protonated molecule (MH+)]→m/z 280 (MH+—CONHCH2CO2H—CONH2) compared to the transition m/z 429 (MH^+, [^2H3]-ONE-GSH adduct IIb internal standard)→m/z 283 (MH+—CONHCH2CO2H—CONH2). Intracellular and extracellular ONE-GSH adduct IIb concentrations were determined by interpolation from a standard curve prepared by adding a fixed amount of [^2H3]-ONE-GSH adduct IIb (10 ng) to increasing amounts of authentic ONE-GSH adduct IIb in the blank lysis buffer or incubation medium (range 0.2 ng/mL to 50 ng/mL). A typical regression line for a standard curve of area ratios compared with ONE-GSH adduct IIb concentrations [ng/mL] in the blank lysis buffer was y) 0.065x +0.0045 (r^2=0.9999).

Data set [2] has as its system glutathione-S-transferase (GST). The settings on record: GSH 1 mM, ONE 1 mM. As for the experimental part: GSH (1 or 4 mM) was incubated with 4-ONE (1 mM or 100 μM) in 100 mM potassium phosphate buffer (200 μL) containing 1 mM EDTA (pH 6.5). Reactions were also conducted in the presence of equine or rat GST (10 or 100 units). Similar reactions were performed with 4 mM GSH and 2-[2 Hi]-ONE, 3-[2H]-ONE, or 2,3-[^2H2]-ONE (1 mM). Reaction mixtures were incubated at 37° C. for 1 h and then filtered through an Amicon Ultra-4 5,000 filter, and a 20 μL aliquot was analyzed by LC-MS using gradient system 1.
TOG and ONE were monitored by UV (224 nm) from the reaction between GSH (1 mM) and ONE (1 mM) in the presence of GST (10 or 100 units) for 24 h.

Data set [3] concerns EA.hy 926 endothelial cells. As to the kind of experiment: Analysis of GSH adducts in endothelial cells subjected to oxidative stress (t-BuOOH/FeII). Format: cell-based. The settings on record: 10 μM t-BuOOH/500 μM FeII. The method, then: EA.hy 926 cells were incubated until they reached 70-80% confluence (approximately 2×10^6 cells). DMEM was removed and replaced with FBS-free DMEM prior to treatment with t-BuOOH (10 μM) and Fe^II (500 μM, ferrous sulfate). Cells were collected after 30 min, and intracellular GSH adduct concentrations were quantified by stable isotope dilution LC-MRM/MS as described above. Channels corresponding to the specific MRM transitions of the ONE-GSH adduct IIb and its trideuterated internal standard were monitored as described above. MRM transitions for HNE- and ONO-GSH adducts m/z 464 (MH^+)→m/z 308 (MH^+—C9H16O2) were also monitored. Quantification of diastereomeric HNE-GSH adducts was conducted by determining the ratio of the area of the HNE-GSH adducts signal to the area of [^2H3]-ONE-GSH adduct IIb. Intracellular concentrations of HNE-GSH adducts were determined with reference to a standard curve constructed in lysis buffer using authentic standards of unlabeled HNE-GSH adducts as described above for the ONE-GSH adduct IIb.

For data set [4] the following is noted: incubated with 1% TFA, 37° C., 24 h.
Protocol: A portion of ONE-GSH adduct IIb was then incubated with 1% TFA at 37° C. for 24 h. The reaction mixture (20 μL) was analyzed by LC-MS using gradient system 1.

Turning to `CCCCCC(=O)/C=C/C=O` [ONE, 4-oxo-2(E)-nonenal], the “ONE concentration at which the cells were no longer viable” value in data set [1] (EA.hy 926 endothelial cells) is recorded as > 20 /<M. Besides, the “ONE concentration at which TOG was detected in the extracellular milieu” value in data set [1] (LC-MRM/MS) is at least 1 µM. The “ONE concentration at which intracellular TOG could be quantified” value in data set [1] (LC-MRM/MS) is recorded as ≥ 5 /iM. For the same compound, the “reaction rate with 100 units of GST relative to 10 units” value in data set [2] is listed as 6 times. The “ONE still left in the reaction mixture” value in data set [2] (10 units of GST, after 24 h) came out at 6%. Also, the ONE consumed in data set [2] (10 units of GST, by 4 h) is 58%; in data set [2] (100 units of GST, by 40 min), 52%. The “consumption of ONE” value in data set [2] (100 units of GST, after 4 h) is 93%. In addition, the ONE remaining result in data set [2] (100 units of GST, after 24 h) was “not detectable”.

In the case of `CCCCCc1c2ccn1C(C(=O)O)CCC(=O)NC(C(=O)NCC(=O)O)CSc1ccn(c1CCCCC)C(C(=O)O)CCC(=O)NC(C(=O)NCC(=O)O)CS2` (stereo not drawn) [adduct III, 7,19-bis-(carboxymethyl-carbamoyl)-5,17-dioxo-25,26-dipentyl-9,21-dithia-1,6,13,18-tetraaza-tricyclo[20.2.1.110.13]hexacosa-10(26),11,22(25),23-tetraene-2,14-dicarboxylic acid], the “detection of the adduct in cells subjected to oxidative stress” value in data set [3] is given as “unable to detect”. The “detection of the adduct in cells treated with ONE” value in data set [1] was “unable to detect”.

Turning to `CCCCCc1c(SCC(NC(=O)CCC(N)C(=O)O)C(=O)NCC(=O)O)ccn1C(CCC(=O)NC(CS)C(=O)NCC(=O)O)C(=O)O` (stereo not drawn) [adduct Ia, 2-amino-4-[2-(1-{1-carboxy-3-[1-(carboxymethyl-carbamoyl)-2-mercapto-ethylcarbamoyl]-propyl}-2-pentyl-1H-pyrrol-3-ylsulfanyl)-1-(carboxymethyl-carbamoyl)-ethylcarbamoyl]-butyric acid], the “detection of the adduct in cells subjected to oxidative stress” value in data set [3] is “unable to detect”. In addition, the “detection of the adduct in cells treated with ONE” value in data set [1] was “unable to detect”.

In the case of “(2S,7R)-7-[iV-(carboxymethyl)carbamoyl]-5-oxo-12-pentyl-9-thia-1,6-diazabicyclo[8.2.1]trideca-10(13),11-diene-2-carboxylic acid [TOG]”, the “conversion to dehydrated product (adduct IV)” value in data set [4] is on record as “quantitative conversion”. In data set [1] (20 fiM ONE for 30 min), the “TOG as share of the intracellular total GSH at the start of the incubation (10 nmol)” value is recorded as 15.4% and the “total TOG” value worked out at 1.54 nmol. Further, the “intracellular concentration of TOG” value in data set [1] (after the addition of 20 μM ONE (printed 20 μL; 20/<M)) is 46.1 µM. For the same compound, the intracellular TOG, maximum of dose-dependent increase in data set [1] (after the addition of ONE) worked out at 46.1 pmol/2×10^6 cells. Also, the “concentration of intracellular TOG” value in data set [1] (cells incubated with 5 fiU ONE for 0.5 h) was determined as 2.8 µM. In data set [2] (10 units of GST), the “incubation time to maximal formation of TOG” value was found to be 24 h. Besides, the “incubation time to maximal formation of TOG” value in data set [2] (100 units of GST) worked out at 4 h.
